The results in this text go back to US20110166079A1, “METHODS OF TREATING CANCER WITH APOE PEPTIDES” (COGNOSCI, INC., priority 2008, published 2011).

The subject of one assay is Akt kinase. As to the kind of experiment: LPS-induced phosphorylation of Akt kinase in BV2 microglial cells (Western blot densitometry). It is filed as cell-based, mouse. As to conditions: 10 ng/mL LPS, 1 μM COG112, normalized to actin, FIG. 2C. As to the method: To determine if COG peptides could also suppress activation of the upstream Akt kinase, BV2 microglial cells were treated with 10 ng/mL LPS alone or in the presence of 1 μM COG112 (SEQ ID NO: 2) peptide. Cell lysates were run on 10% polyacrylamide gels and subsequently transferred to nitrocellulose membranes. Blots were probed with an anti-phospho-Akt antibody or an antibody to actin. Densitometry analysis of the western blots was conducted and the signals from phosphorylated Akt kinase were normalized to those from actin.
(In general: In western blotting, separated proteins are transferred to a membrane and probed.)

The target of the next assay is T1, PP2A (Mus musculus, UniProt P63330).
T1 construct: cells were lysed and PP2A was immunoprecipitated by adding an antibody targeted to the catalytic C-subunit of PP2A; endogenous in cells; host or cells: mouse macrophagic RAW cells
T1 sequence (P63330 whole entry): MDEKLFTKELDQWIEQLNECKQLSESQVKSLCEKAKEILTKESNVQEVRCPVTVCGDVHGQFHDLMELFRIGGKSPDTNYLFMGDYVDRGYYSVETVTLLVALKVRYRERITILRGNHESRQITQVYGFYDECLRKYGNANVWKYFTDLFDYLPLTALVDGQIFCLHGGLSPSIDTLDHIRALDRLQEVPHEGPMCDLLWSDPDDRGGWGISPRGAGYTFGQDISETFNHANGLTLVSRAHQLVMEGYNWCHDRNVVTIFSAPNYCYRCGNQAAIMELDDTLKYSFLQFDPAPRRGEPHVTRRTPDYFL
In words: PP2A activity in RAW cells (immunoprecipitation / phosphate release). Type of assay: cell-based. As to conditions: 30 minutes, 2 μM COG112, 10 nM okadaic acid, FIG. 3. As to the method: Mouse macrophagic RAW cells were incubated with either 2 μM COG112 (SEQ ID NO: 2), 10 nM okadaic acid (an inhibitor of PP2A), or okadaic acid and COG112. After 30 minutes, cells were lysed and PP2A was immunoprecipitated by adding an antibody targeted to the catalytic C-subunit of PP2A. Half of the immunoprecipitate was separated by SDS-PAGE, blotted on to nitrocellulose, and probed with an anti-PP2AC antibody. The remaining portion was assayed for activity by adding 125 μL assay cocktail containing a phospho-threonine substrate peptide to the immunoprecipitated enzyme. After incubating at 37° C. with shaking, a 25 μL aliquot was removed and added to an ammonium molybdate solution (Upstate) that chelates free phosphate and changes color upon chelate formation. Aliquots were removed at various time intervals and the amount of free phosphate released from the peptide was determined by comparison to a phosphate standard curve. The rate of phosphate release was determined by linear fit to the time course data and was normalized to the relative PP2A concentration. […] PP2A activity was reduced in the presence of okadaic acid alone as expected. […] Thus, the active pool of PP2A in a cell can be regulated by ApoE peptides.

The subject of assay [1] is BCR/Abl+ K562 CML cell line. In words: Growth of BCR/Abl+ K562 CML cells (trypan blue counting). It is filed as cell-based. The method, then: Cells (20 mL) were seeded in a T-75 flask at a concentration of 0.25×10^6 cells/mL. Each day after seeding, 0.20 mL of cell suspension was removed and centrifuged to collect cells. The cell pellet was resuspended in 500 μL of serum free media and 100 μL of trypan blue stain was added and incubated for 5 minutes before counting the […] cells with a hemacytometer.

In a further assay the test system is ERK, Akt, IκK and NFκB. As to the kind of experiment: Immunoblotting of phospho- and total ERK, Akt, IκK and NFκB in B-CLL cells. Particulars: 2 μM COG112, 3 hours, relative to untreated cells. Type of assay: cell-based, human. An excerpt:
The results of the two previous series of experiments indicate that SET overexpression in CLL cells results in decreased PP2A activity which contributes to the persistence of an anti-apoptotic state in these cells. COG peptides, such as COG112, can induce apoptosis in CLL cells, which may occur through the binding of COG peptides to the SET protein, thereby relieving the suppression of PP2A activity. To further elucidate the mechanism of the cytotoxic effect of COG peptides on CLL cells, the effect of COG112 treatment on the phosphorylation state of key signal transduction proteins and PP2A activity in B-CLL cells is evaluated. […]
Immunoblotting is performed on the extracts from COG112 treated and untreated CLL cells to determine the relative levels of phospho-and total-(phosphorylated plus non-phosphorylated) ERK, Akt, IκK and NFκB. Specifically, cell extracts obtained by the method above will be analyzed to determine the protein concentration of each lysate using the BCA assay kit (Pierce). […] Protein bands are visualized and quantitated using an Odyssey Infrared scanner (LiCor). This method allows for simultaneous quantitation of the phospho-Akt using the emission of the 800 nm channel and of the total Akt using the emission of the 680 nm channel. Following the initial read, a rabbit anti-β-Actin antibody is incubated with the membrane for 1 hour and the membrane is washed. […]

Turning to “Ac-RQIKIWFQNRRMKWKKCLRVRLASHLRKLRKRLL-NH2 (N-terminus and C-terminus assumed) [COG112]”, in the assay with Akt kinase, the “LPS-induced phosphorylation of the Akt kinase” value is “significantly decreased”. At PP2A, the “PP2A activity (rate of phosphate release)” value is listed as “increased”. For the same substance, the “K562 cell growth at reduced concentrations” value in assay [1] (1 μM COG112, 75 nM Imatinib, alone or combined, FIG. 7B) was “suboptimal inhibition”. Also, the K562 cell growth result in assay [1] (dose response of COG112, Imatinib 1 μM positive control, FIG. 7A) was “dose dependent inhibition”. Besides, in the assay on ERK, Akt, IκK and NFκB, the “quantity of phosphorylated proteins (ERK, Akt, IκK, NFκB)” value was “significant reduction”.
